Data set [1] can be described thus: Enhancement of UVA absorption (UV spectrum of sunscreen in solvent). The class given is physicochemical. The conditions noted are these: for λmax of E-517 in the solvent: 10 mg sunscreen E-517 (avobenzone) in 1 L of solvent; for λmax of E-567 in the solvent: 10 mg sunscreen E-567 (benzophenone-3) in 1 L of solvent. How it is done:
A 10-mg portion of sunscreen was dissolved in 1 L of solvent, and the UV spectrum of the solution was measured using a Cary 1 E UV-Visible spectrophotometer.

Data set [2] in a line: Solubility of solid organic sunscreens in various solvents. How it is done: Predetermined solutions (w/w) were prepared at 40-50° C. using a given solvent-sunscreen combination. The solutions were allowed to stand for 1 week at 25° C. in a constant temperature chamber. A small seed crystal was initially added at 25° C. to hasten equilibration. Solubility was measured by GLC using standard solutions to calibrate the instrument.

Structures are written as SMILES. Read-outs that look alike come from different tables or passages of the source.

Regarding `O=C(OCCc1ccccc1)c1ccccc1` [2-phenylethyl benzoate, 2-Phenylethyl Benzoate], in data set [1], the “λmax of E-517 in the solvent” value came out at 362 nm and the “λmax of E-567 in the solvent” value worked out at 329 nm.
In the case of `CC(COC(=O)c1ccccc1)OC(=O)c1ccccc1` (centres unmarked) [propylene glycol dibenzoate, Propylene Glycol Dibenzoate], the “Solubility of MBC in the solvent” value in data set [2] was determined as 33 % w/w.
In the case of `O=C(Cc1cccc(C(F)(F)F)c1)OCc1ccccc1` [benzyl α,α,α-trifluoro-m-tolylacetate, Benzyl α,α,α-Trifluoro-m-tolylacetate], the “Solubility of Avobenzone in the solvent” value in data set [2] (sunscreen Avobenzone, 1 week at 25° C., seeded, GLC) turned out to be 15 % w/w. For the same compound, in data set [2] (sunscreen MBC (4-methylbenzylidene camphor), 1 week at 25° C., seeded, GLC), the “Solubility of MBC in the solvent” value is 34 % w/w. The “Solubility of Oxybenzone in the solvent” value in data set [2] (sunscreen Oxybenzone, 1 week at 25° C., seeded, GLC) came to 28 % w/w.
Turning to `CCO` [Ethanol, reference compound], in data set [1], the “λmax of E-517 in the solvent” value was 358 nm and the “λmax of E-567 in the solvent” value came to 325 nm.

The values are drawn from patent US20050152858A1, “Solubilizing agents for active or functional organic compounds” (ISP INVESTMENTS INC., priority 2003, published 2005).
